Measurements reported in PMC9338942, “(+)-Usnic acid and its salts, inhibitors of SARS‐CoV‐2, identified by using in silico methods and in vitro assay” (Scientific Reports, 2022).

Key:
Experiment in all cases: microbe, parasite or virus in culture
Type in all cases: cell-based
Conditions in all cases: Severe acute respiratory syndrome coronavirus 2, vero cells
[1] = test system: SARS-CoV-2 Alpha var (B.1.1.7)
[2] = test system: SARS-CoV-2 Beta var (B.1.351)
[3] = test system: SARS-CoV-2 Delta var (B.1.617.2)

Row | SMILES | IC50 [1] [µM] | IC50 [2] [µM] | IC50 [3] [µM]
1 | Cc1cccc(C)c1OCC(=O)N[C@@H](Cc1ccccc1)[C@@H](O)C[C@H](Cc1ccccc1)NC(=O)[C@H](C(C)C)N1CCCNC1=O [lopinavir] | 10.8 | 11.8 | 15.3
2 | CCC(CC)COC(=O)[C@H](C)N[P@](=O)(OC[C@H]1O[C@@](C#N)(c2ccc3c(N)ncnn23)[C@H](O)[C@@H]1O)Oc1ccccc1 [remdesivir] | 2.25 | 1.47 | 6.48
3 | CC(=O)c1c(O)c(C)c(O)c2c1OC1=CC(=O)C(C(C)=O)C(=O)[C@@]12C (single isomer, unassigned; (+)) [(+)-usnic acid] | 6.05 | 2.92 | 7.17
4 | CCN(CC)CCCC(C)Nc1ccnc2cc(Cl)ccc12 (stereo not drawn) [chloroquine] | 6.16 | 2.64 | 6.22
